{"source": "patent US11819532B2", "about": "“Peptide macrocycles against Acinetobacter baumannii” (Hoffmann-La Roche Inc., priority 2018, dated 2023)", "data": [{"tested_on": "A. baumannii ATCC 17978", "assay": "50% growth inhibitory concentration (IC50) determination, antimicrobial susceptibility testing", "format": "cell-based", "conditions": "Acinetobacter baumannii; 50% growth inhibition, A. baumannii strain ATCC17978, Iso-Sensitest medium; read-out: IC50 ATCC17978", "description": "The in vitro antimicrobial activity of the compounds was alternatively determined according to the following procedure:\nThe assay used a 10-points Iso-Sensitest broth medium to measure quantitatively the in vitro activity of the compounds against A. baumannii ATCC 17978.\nStock compounds in DMSO were serially twofold diluted (e.g. range from 50 to 0.097 μM or from 10 to 0.020 μM final concentration) in 384 wells microtiter plates and inoculated with 49 μl the bacterial suspension in Iso-Sensitest medium to have a final cell concentration of ˜5×10^(5)CFU/ml in a final volume/well of 50 μl/well. Microtiter plates were incubated at 35±2° C.\nBacterial cell growth was determined with the measurement of optical density at X=600 nm each 20 minutes over a time course of 16h.\nGrowth inhibition was calculated during the logarithmic growth of the bacterial cells with determination of the concentration inhibiting 50% (IC50) and 90% (IC90) of the growth.\nTable 1 provides the 50% growth inhibitory concentrations (IC50) in micromoles per liter of the compounds of present invention obtained against the A. baumannii strain ATCC17978.", "units": {"IC50": "nM"}, "values": [{"compound": "CN1C(=O)[C@H](CCCCN)NC(=O)[C@H](CCCN)NCc2cccnc2Sc2c(Cl)ccc(-c3ccc(C(=O)O)nc3)c2CNC(=O)[C@@H]1Cc1c[nH]c2ccccc12", "note": "[Example 2.02, 5-[(11S,14S,17S)-14-(4-aminobutyl)-11-(3-aminopropyl)-25-chloro-17-(1H-indo1-3-ylmethyl)-16-methyl-12,15,18-trioxo-2-thia-4,10,13,16,19-pentazatricyclo[19.4.0.03,8]pentacosa-1(25),3,5,7,21,23-hexaen-22-yl]pyridine-2-carboxylic acid]", "IC50": 29}, {"compound": "CN1C(=O)[C@H](CCCCN)NC(=O)[C@H](CCCN)NCc2cccnc2Sc2c(Cl)ccc(-c3ccc(C(=O)O)c(O)c3)c2CNC(=O)[C@@H]1Cc1c[nH]c2ccccc12", "note": "[Example 3.00, 4-[(1 S,14S,17S)-14-(4-Aminobutyl)-1-(3-aminopropyl)-25-chloro-17-(1H-indol-3-ylmethyl)-16-methyl-12,15,18-trioxo-2-thia-4,10,13,16,19-pentazatricyclo[19.4.0.03,8]pentacosa-1(21), 3(8), 4,6,22,24-hexaen-22-yl]-2-hydroxy-benzoic Acid]", "IC50": 39}, {"compound": "CN1C(=O)[C@H](CCC(F)(F)CN)NC(=O)[C@H](CCCN)NCc2cccnc2Sc2c(Cl)ccc(-c3ccc(C(=O)O)cc3)c2CNC(=O)[C@@H]1Cc1c[nH]c2ccccc12", "note": "[Example 4.00, 4-[(11S,14S,17S)-14-(4-Amino-3,3-difluoro-butyl)-11-(3-aminopropyl)-25-chloro-17-(1H-indol-3-ylmethyl)-16-methyl-12,15,18-trioxo-2-thia-4,10,13,16,19-pentazatricyclo[19.4.0.03,8]pentacosa-1(21), 3,5,7,22,24-hexaen-22-yl]benzoic Acid]", "IC50": 19}, {"compound": "CN1C(=O)[C@H](CCCCN)NC(=O)[C@H](CCC(N)=O)NCc2cccnc2Sc2c(Cl)ccc(-c3ccc(C(=O)O)cc3)c2CNC(=O)[C@@H]1Cc1c[nH]c2ccccc12", "note": "[Example 5.00, 4-[(11S,14S,17S)-14-(4-aminobutyl)-1-(3-amino-3-oxo-propyl)-25-chloro-17-(1H-indol-3-ylmethyl)-16-methyl-12,15,18-trioxo-2-thia-4,10,13,16,19-pentazatricyclo[19.4.0.03,8]pentacosa-1(21), 3,5,7,22,24-hexaen-22-yl]benzoic Acid]", "IC50": 67}, {"compound": "Cc1[nH]c2ccccc2c1C[C@H]1C(=O)NCc2c(-c3ccc(C(=O)O)cc3)ccc(Cl)c2Sc2ncccc2CN[C@@H](CCCN)C(=O)N[C@@H](CCCCN)C(=O)N1C", "note": "[Example 7.00, 4-[(11S,14S,17S)-14-(4-Aminobutyl)-11-(3-aminopropyl)-25-chloro-16-methyl-17-[(2-methyl-1H-indol-3-yl)methyl]-12,15,18-trioxo-2-thia-4,10,13,16,19-pentazatricyclo[19.4.0.03,8]pentacosa-1(25), 3,5,7,21,23-hexaen-22-yl]benzoic Acid]", "IC50": 28}, {"compound": "CN1C(=O)[C@H](CCCCN)NC(=O)[C@H](CCCN)NCc2nccnc2Sc2c(Cl)ccc(-c3ccc(C(=O)O)cc3)c2CNC(=O)[C@@H]1Cc1c[nH]c2ccccc12", "note": "[Example 8.00, 4-[(11S,14S,17S)-14-(4-Aminobutyl)-11-(3-aminopropyl)-25-chloro-17-(1H-indol-3-ylmethyl)-16-methyl-12,15,18-trioxo-2-thia-4,7,10,13,16,19-hexazatricyclo[19.4.0.03,8]pentacosa-1(21), 3,5,7,22,24-hexaen-22-yl]benzoic Acid]", "IC50": 20}, {"compound": "CN1C(=O)[C@H](CCCCN)NC(=O)[C@H](CCCN)NCc2cccnc2Sc2c(F)ccc(-c3ccn(/C=C/C(=O)O)c(=O)c3)c2CNC(=O)[C@@H]1Cc1c[nH]c2ccccc12", "note": "[Example 9.02, (E)-3-[4-[(11S,14S,17S)-14-(4-Aminobutyl)-11-(3-aminopropyl)-25-fluoro-17-(1H-indol-3-ylmethyl)-16-methyl-12,15,18-trioxo-2-thia-4,10,13,16,19-pentazatricyclo[19.4.0.03,8]pentacosa-1(25),3(8),4,6,21,23-hexaen-22-yl]-2-oxo-1-pyridyl]prop-2-enoic acid]", "IC50": 88}, {"compound": "CN1C(=O)[C@H](CCCN)NC(=O)[C@H](CCCN)NCc2cccnc2Sc2c(Cl)ccc(-c3ccc(C(=O)O)cc3)c2CNC(=O)[C@@H]1Cc1c[nH]c2ccccc12", "note": "[Example 12.00, 4-[(11S,14S,17S)-11,14-bis(3-Aminopropyl)-25-chloro-17-(1H-indol-3-ylmethyl)-16-methyl-12,15,18-trioxo-2-thia-4,10,13,16,19-pentazatricyclo[19.4.0.03,8]pentacosa-1(21), 3,5,7,22,24-hexaen-22-yl]benzoic Acid]", "IC50": 19}, {"compound": "CN1C(=O)[C@H](CCN)NC(=O)[C@H](CCCN)NCc2cccnc2Sc2c(Cl)ccc(-c3ccc(C(=O)O)cc3)c2CNC(=O)[C@@H]1Cc1c[nH]c2ccccc12", "note": "[Example 13.00, 4-[(11S,14S,17S)-14-(2-Aminoethyl)-11-(3-aminopropyl)-25-chloro-17-(1H-indol-3-ylmethyl)-16-methyl-12,15,18-trioxo-2-thia-4,10,13,16,19-pentazatricyclo[19.4.0.03,8]pentacosa-1(25), 3(8), 4,6,21,23-hexaen-22-yl]benzoic Acid]", "IC50": 20}, {"compound": "CN1C(=O)[C@H](CCCN)NC(=O)[C@H](CCCN)NCc2cccnc2Sc2c(F)ccc(-c3ccc(C(=O)O)cc3)c2CNC(=O)[C@@H]1Cc1c[nH]c2ccccc12", "note": "[Example 14.00, 4-[(1 S,14S,17S)-11,14-bis(3-Aminopropyl)-25-fluoro-17-(H-indol-3-ylmethyl)-16-methyl-12,15,18-trioxo-2-thia-4,10,13,16,19-pentazatricyclo[19.4.0.03,8]pentacosa-1(25), 3(8), 4,6,21,23-hexaen-22-yl]benzoic Acid]", "IC50": 21}, {"compound": "CN1C(=O)[C@H](CCCCN)NC(=O)[C@H](CCN)NCc2cccnc2Sc2c(Cl)ccc(-c3ccc(C(=O)O)cc3)c2CNC(=O)[C@@H]1Cc1c[nH]c2ccccc12", "note": "[Example 15.00, 4-[(1 S,14S,7S)-14-(4-Aminobutyl)-11-(2-aminoethyl)-25-chloro-17-(1H-indol-3-ylmethyl)-16-methyl-12,15,18-trioxo-2-thia-4,10,13,16,19-pentazatricyclo[19.4.0.03,8]pentacosa-1(25), 3(8), 4,6,21,23-hexaen-22-yl]benzoic Acid]", "IC50": 20}, {"compound": "CN1C(=O)[C@H](CCCN)NC(=O)[C@H](CCN)NCc2cccnc2Sc2c(Cl)ccc(-c3ccc(C(=O)O)cc3)c2CNC(=O)[C@@H]1Cc1c[nH]c2ccccc12", "note": "[Example 16.00, 4-[(11S,14S,17S)-11-(2-Aminoethyl)-14-(3-aminopropyl)-25-chloro-17-(1H-indol-3-ylmethyl)-16-methyl-12,15,18-trioxo-2-thia-4,10,13,16,19-pentazatricyclo[19.4.0.03,8]pentacosa-1(25), 3(8), 4,6,21,23-hexaen-22-yl]benzoic Acid]", "IC50": 20}, {"compound": "CN1C(=O)[C@H](CCCN)NC(=O)[C@H](CCCN)NCc2cccnc2Sc2cccc(-c3ccc(C(=O)O)cc3)c2CNC(=O)[C@@H]1Cc1c[nH]c2ccccc12", "note": "[Example 17.00, 4-[(1 S,14S,17S)-11,14-bis(3-Aminopropyl)-17-(1H-indol-3-ylmethyl)-16-methyl-12,15,18-trioxo-2-thia-4,10,13,16,19-pentazatricyclo[19.4.0.03,8]pentacosa-1(25), 3 (8),4,6,21,23-hexaen-22-yl]benzoic Acid]", "IC50": 75}]}]}
